Tested on: normal, non-HF ovine model
Assay: Change in ventricle contractility (max dP/dt as surrogate) and beat-by-beat correlation of right and left ventricle contractility after an injection
Format: in vivo
Details: pressure max (dP/dt) used as surrogate for contractility, calcium at 5 mL
Source text: The correlation was a heartbeat-by-heartbeat analysis. Pressure measurements, taken by a Millar catheter comprising a MEMS pressure sensor, in units of max (dP/dt) was used as a surrogate for contractility. The first change, a dobutamine injection, provided a very high contractility increase greater than 500%. The average correlation between right ventricle contractility and left ventricle contractility was very good at 0.91, where 1.00 is a perfect correlation. Accordingly, if a subject is given a dobutamine injection, measuring changes to right ventricle contractility can provide accurate information about changes to left ventricle contractility. The first change was repeated three times. The second change, calcium injection at 5 mL, provided a contractility increase of about 20%. […] The average correlation between right ventricle contractility and left ventricle contractility using a Millar (MEMS) sensor on a catheter was very good at 0.91. The average correlation between right ventricle contractility and left ventricle contractility using a fluid-filled lumen of a Swan-Ganz catheter in communication with an external pressure sensor was also very good at 0.87. […]

For calcium [Calcium Injection], the “Contractility % Increase” value was roughly 20% and the “Contractility % Increase” value (listed as calcium injection) was “about 20%”.

— patent publication US12569686B2, “Chronically implantable systems and methods for affecting cardiac contractility and/or relaxation” (Cardionomix, Inc., priority 2020, dated 2026)
